In US20100009860A1, “Device and method for analysis of interactions between biomolecules” (priority 2004, published 2010):
Ends that are not written are not given here.

Legend:
streptavidine [1] = conditions: cited from earlier work
FKBP12 [2] = target: T1, FKBP12 (Mus musculus, UniProt P26883); test: Mapping of interaction region with peptide pairs on molecular fork MG2, FKBP12 as detection molecule; assay type: binding; conditions: 200 nM FKBP12, overlapping 13 mer FKBP12 peptides, 2-amino acid shift, cellulose
T1 sequence (P26883 whole entry): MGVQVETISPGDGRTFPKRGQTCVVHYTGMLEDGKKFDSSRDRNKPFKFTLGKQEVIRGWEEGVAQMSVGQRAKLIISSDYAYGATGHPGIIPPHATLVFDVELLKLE
Experimental: A) The cellulose modified with peptide pairs by molecular forks MG2 was analyzed using 200 nM FKBP12 followed by Western Blot-analysis and immunodetection. The constant peptide block acetyl-KCPLLTAQFFEQS of FAP (Lys217-Ser229) was synthesized at the Dde-side. At the Fmoc-side, overlapping 13 mer peptides were synthesized spanning the entire FKBP12-sequence with a 2-amino acid shift. The densitometric analysis was performed using a GS-700 imaging densitometer (Bio-Rad). The ordinate represents the difference from the inverse value of the intensity of each spot and the inverse value of the average spot intensities. Large positive values correspond to a weak signal in the blot and show potential interactions within the peptide pair.
(§1) B) The cellulose modified with peptide pairs by molecular forks MG2 was analyzed using 200 nM FKBP12 followed by the Western Blot-analysis and immunodetection. […] The ordinate represents the difference from the inverse value of the intensity of each analyzed spot and the inverse value of the average spot intensities. […]
as §1, with “The” for “B) The”, “intensity.” for “intensities.”

FKBP12 [3] = target: T1, FKBP12; test: Mapping of FKBP12 binding sites by classical SPOT-technology and protein interaction analysis; conditions: SPOT peptide scan of FAP48 / cytosolic domain of EGF-receptor
Source text: In a first step, the FKBP12-binding sites in the FAP48 were mapped using classical SPOT-technology and protein interaction analysis.
In a first step, the FKBP12 binding sites in the cytosolic domain of the EGF-receptor (EGFR) were mapped by classical SPOT-technology and protein interaction analysis. […] Then, peptide pairs were synthesized at the MG12, as described in example 2, whereby the constant peptide block Ac-PHVCRLLGICLTS was synthesized at the Dde-side. At the Fmoc-side, overlapping 13 mer peptides were synthesized spanning the entwire FKBP12-sequence with a 2-aminoacid shift. In each case 48 individual spots resulted therefrom.

[4] = system: streptavidine-peptide/strep-tag II interaction; test: Inhibition of streptavidine-peptide/strep-tag II interactions on MG3 peptide-pair array, fluorescence read-out; assay type: binding; conditions: membrane incubated 30 min with agent (0.5 mM biotine) before analysis; excitation 366 nm, emission 510-530 nm
Experimental: The reading of the signal by fluorescence and the inhibition of the streptavidine-peptide/strep-tag II-interactions using the natural product biotine and their derivatives are shown.
A) The chemical structure of the exemplary molecular fork MG3.
The peptide being at the side of Fmoc was marked with a danysl-radical and the peptide being at the Aloc-side was marked with fluoresceine. The analysis was performed by detection of the light emission at 510-530 nm after excitation with light of a wave length of 366 nm using the Raytest DIANA chemiluminescence detection system. […]
Peptide pairs were synthesized at MG3 (FIG. 17A), whereby the constant peptide block strep-tag II was synthesized at the Aloc-side and marked with a fluoresceine radical. […] Differences in fluorescence properties of the spots were obtained with different peptide pairs, an enhanced fluorescence emission was detected for interacting peptide pairs.
For the inhibition of interaction of the peptide pairs, the modified membrane was treated with high-affinated, low-affine and non-affine agents with similar chemical properties before the analysis. […] Subsequently, the analysis of the fluorescence properties of the spots was carried out.

streptavidine [5] = target: streptavidine (Streptomyces avidinii, UniProt P22629); test: Streptavidine/strep-tag II interaction using inhibition with biotine (Western blot, immunodetection); assay type: binding; conditions: 60 μg streptavidine/6 μg biotine, 1 h pre-incubation
Chain of streptavidine (Streptomyces avidinii, UniProt P22629) (P22629 25-183): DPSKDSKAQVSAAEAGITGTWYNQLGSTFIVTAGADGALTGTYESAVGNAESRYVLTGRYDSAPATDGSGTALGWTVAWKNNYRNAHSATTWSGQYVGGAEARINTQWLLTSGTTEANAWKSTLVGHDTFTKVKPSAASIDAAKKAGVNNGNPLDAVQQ
Experimental: The cellulose, which was modified with peptide pairs corresponding to the embodiment shown in FIG. 7 by molecular forks MG1, was analyzed using the previously formed biotine/streptavidine-complex (60 μg streptavidine/6 μg biotine, 1 h pre-incubation) followed by Western Blot-analysis and immunodetection. A) Only just one side on the MG1 was attached to oligopeptides of the streptavidine-scans. The other side was modified by an acetylation reaction. B) Only just one side on the MG1 was attached to oligopeptides of the streptavidine-scan, and the strep-tag II-peptide was synthesized on the other side.
As described in example 2, peptide pairs were synthesized at the MG2, whereby the constant peptide block strep-tag II was synthesized at the Dde-side. At the Fmoc-side, overlapping 12 mer peptides were synthesized spanning the entire streptavidine-sequence with a 2-aminoacid shift. 60 μg streptavidine were pre-incubated using 6 μg biotine in the MP-buffer (30 mM tris-HCl, pH 7.6, 170 mM NaCl, 6.4 mM KCl, 0.05% Tween 20, 5% sucrose) for 60 min and it was subsequently incubated overnight at 4° C. while shaking with the cellulose. […]
A densitometric analysis of the intensities of each spot was performed by a GS-700 imaging densitometer (Bio-Rad) for quantifying the signals (FIG. 12).

## N=C1N[C@H]2[C@H](CS[C@H]2CCCCC(=O)O)N1 [2-iminobiotine]
Streptavidine [1]
  Ka: 8e+06 M⁻¹

## acetyl-PHVCRLLGICLTS (Ac-PHVCRLLGICLTS; cysteine pairing not given here)
FKBP12 [2]
  interaction region in FKBP12: Met21-Ser67

## LSPLYLLQFNMGH (Ac-LSPLYLLQFNMGH; not fully specified)
FKBP12 [3]
  interaction to FKBP12: mediate an interaction to FKBP12

## N[C@@H]1[C@H](CCCCC(=O)O)SC[C@@H]1N [diaminobiotine]
[4]
  fluorescence emission of the spots (inhibition of peptide pair interaction): very similar to the original fluorescence behaviour without a pharmaceutical agent

## KCPLLTAQFFEQS (Ac-KCPLLTAQFFEQS; not fully specified)
FKBP12 [3]
  interaction to FKBP12: mediate an interaction to FKBP12

## PHVCRLLGICLTS (Ac-PHVCRLLGICLTS; cysteine pairing not given here)
FKBP12 [3]
  interaction to FKBP12: particularly strong interacting

## O=C(O)CCCC[C@@H]1SC[C@@H]2NC(=O)N[C@@H]21 [biotine]
[4]
  fluorescence emission of the spots (inhibition of peptide pair interaction): decreased
Streptavidine [5]
  bond of the streptavidine on the strep-tag II-peptide: blocked
